Assay results published in US6066655A, “4-phenyl-3-substituted 1,4-dihydropyridine esters” (Bayer Aktiengesellschaft, priority 1993, dated 2000).

Experiments:
[1] = test system: PN 200-110 binding sites in the rat brain; test: Binding affinity for PN 200-110 (DHP) binding sites in the rat brain; details: for Selectivity: Ki (Heart) relative to Ki (Brain), rat; for Ki: rat brain, PN 200-110 binding sites
Excerpt: (§1) Binding Assays […] Can. Journ. Physiol. Pharmacol. 65, (1987) 1452. […] This manifests itself, for example, by comparison of the binding affinities for DHP (PN-200 110) binding sites in the rat brain and rat […]., Rutledge, A., Janis, […]., Can. Journ. Physiol. Pharmacol. 65 (1987), 1452].

[2] = target: T1, PN 200-110 binding sites in the rat heart (Rattus norvegicus, UniProt P22002); test: Binding affinity for PN 200-110 (DHP) binding sites in the rat heart
T1 construct: from tissue; host or cells: rat heart
Excerpt: as §1

T1 sequence (P22002 whole entry, other chains not shown): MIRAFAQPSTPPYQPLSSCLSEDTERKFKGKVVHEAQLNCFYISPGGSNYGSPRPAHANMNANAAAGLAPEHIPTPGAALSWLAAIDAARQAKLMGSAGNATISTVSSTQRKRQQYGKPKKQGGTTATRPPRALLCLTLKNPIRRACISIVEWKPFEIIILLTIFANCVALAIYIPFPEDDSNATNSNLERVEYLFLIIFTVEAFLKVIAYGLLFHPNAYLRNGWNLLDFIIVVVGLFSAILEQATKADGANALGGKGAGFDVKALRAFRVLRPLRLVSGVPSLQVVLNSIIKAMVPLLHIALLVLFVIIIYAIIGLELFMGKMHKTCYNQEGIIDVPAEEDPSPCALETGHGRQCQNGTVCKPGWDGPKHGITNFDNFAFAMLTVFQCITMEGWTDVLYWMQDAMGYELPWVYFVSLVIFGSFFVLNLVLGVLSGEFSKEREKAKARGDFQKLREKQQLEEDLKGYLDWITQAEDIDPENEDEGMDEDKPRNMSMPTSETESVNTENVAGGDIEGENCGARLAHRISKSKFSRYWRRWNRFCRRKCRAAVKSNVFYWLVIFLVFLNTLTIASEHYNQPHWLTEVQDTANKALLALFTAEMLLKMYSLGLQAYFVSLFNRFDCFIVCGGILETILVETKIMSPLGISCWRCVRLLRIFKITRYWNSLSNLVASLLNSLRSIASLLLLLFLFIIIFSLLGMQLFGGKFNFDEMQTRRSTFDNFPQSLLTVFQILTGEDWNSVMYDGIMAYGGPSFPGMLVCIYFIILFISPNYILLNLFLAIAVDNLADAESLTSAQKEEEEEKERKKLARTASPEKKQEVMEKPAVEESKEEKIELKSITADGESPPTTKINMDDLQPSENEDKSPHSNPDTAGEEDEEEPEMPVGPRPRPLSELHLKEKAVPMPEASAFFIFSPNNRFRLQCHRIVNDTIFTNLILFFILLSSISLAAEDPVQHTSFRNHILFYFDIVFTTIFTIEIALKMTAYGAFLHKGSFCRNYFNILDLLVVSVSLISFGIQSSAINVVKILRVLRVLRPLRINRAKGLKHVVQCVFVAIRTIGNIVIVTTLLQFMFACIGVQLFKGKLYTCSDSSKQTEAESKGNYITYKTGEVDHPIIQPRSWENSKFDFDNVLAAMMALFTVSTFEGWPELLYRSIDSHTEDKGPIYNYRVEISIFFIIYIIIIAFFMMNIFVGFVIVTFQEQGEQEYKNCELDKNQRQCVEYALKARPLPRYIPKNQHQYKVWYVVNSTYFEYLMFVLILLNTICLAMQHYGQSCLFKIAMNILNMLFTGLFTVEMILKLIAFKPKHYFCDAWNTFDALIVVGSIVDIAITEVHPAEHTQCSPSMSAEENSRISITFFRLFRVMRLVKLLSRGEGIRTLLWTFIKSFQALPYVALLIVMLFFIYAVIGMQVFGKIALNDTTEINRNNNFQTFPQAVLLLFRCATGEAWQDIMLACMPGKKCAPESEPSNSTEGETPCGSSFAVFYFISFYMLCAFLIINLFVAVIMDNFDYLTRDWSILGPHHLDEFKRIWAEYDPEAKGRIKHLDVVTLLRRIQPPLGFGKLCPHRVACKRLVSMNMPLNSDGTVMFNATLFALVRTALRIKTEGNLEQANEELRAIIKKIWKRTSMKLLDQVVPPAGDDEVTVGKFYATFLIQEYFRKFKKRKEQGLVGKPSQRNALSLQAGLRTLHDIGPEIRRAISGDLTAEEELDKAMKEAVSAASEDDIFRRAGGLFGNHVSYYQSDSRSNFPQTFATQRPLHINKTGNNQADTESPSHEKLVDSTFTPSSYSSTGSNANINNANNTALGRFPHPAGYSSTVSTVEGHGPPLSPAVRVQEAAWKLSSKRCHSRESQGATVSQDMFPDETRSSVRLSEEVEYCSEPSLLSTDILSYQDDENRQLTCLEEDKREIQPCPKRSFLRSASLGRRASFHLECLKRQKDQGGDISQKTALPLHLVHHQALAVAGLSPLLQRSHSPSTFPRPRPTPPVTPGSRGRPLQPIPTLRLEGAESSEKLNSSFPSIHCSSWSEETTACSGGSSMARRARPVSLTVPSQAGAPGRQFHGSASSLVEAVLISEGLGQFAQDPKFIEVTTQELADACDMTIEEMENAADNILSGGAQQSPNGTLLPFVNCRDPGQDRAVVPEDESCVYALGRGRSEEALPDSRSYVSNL
T1 sequence (P54290 25-944 partner limits assumed, other chains not shown): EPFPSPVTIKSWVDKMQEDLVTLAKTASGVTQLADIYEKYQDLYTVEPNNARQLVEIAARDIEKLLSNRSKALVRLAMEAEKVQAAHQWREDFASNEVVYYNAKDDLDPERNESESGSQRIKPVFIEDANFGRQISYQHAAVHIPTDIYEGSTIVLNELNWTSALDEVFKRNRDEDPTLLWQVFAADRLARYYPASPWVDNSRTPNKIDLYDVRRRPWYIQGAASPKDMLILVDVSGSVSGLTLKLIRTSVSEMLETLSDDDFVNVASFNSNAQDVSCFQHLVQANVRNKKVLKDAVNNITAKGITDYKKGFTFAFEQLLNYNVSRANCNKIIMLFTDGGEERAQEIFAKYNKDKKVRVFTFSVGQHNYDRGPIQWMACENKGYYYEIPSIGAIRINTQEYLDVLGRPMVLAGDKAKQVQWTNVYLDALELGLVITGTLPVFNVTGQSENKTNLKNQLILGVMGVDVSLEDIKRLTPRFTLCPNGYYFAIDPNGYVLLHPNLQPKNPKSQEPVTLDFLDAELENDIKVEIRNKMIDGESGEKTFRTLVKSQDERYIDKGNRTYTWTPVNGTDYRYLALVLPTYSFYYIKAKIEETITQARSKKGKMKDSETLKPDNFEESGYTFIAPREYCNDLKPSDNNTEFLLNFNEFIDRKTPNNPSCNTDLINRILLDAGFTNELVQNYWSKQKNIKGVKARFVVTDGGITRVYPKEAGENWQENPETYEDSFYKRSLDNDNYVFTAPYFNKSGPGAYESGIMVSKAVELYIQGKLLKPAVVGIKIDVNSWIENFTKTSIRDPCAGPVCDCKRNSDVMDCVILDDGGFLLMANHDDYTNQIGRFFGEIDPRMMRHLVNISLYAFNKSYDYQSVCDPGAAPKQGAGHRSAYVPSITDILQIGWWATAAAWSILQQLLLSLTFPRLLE
T1 sequence (P54290 945-1091 partner limits assumed, other chains not shown): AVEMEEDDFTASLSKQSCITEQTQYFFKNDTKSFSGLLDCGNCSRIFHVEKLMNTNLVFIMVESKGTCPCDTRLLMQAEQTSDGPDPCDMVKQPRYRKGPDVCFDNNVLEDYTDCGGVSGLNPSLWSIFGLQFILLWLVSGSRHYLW

Selectivity [1] | Ki [1] | Ki [2] | Structure (SMILES)
6.0 | 13 nM | 78 nM | CO[C@H](COC(=O)C1=C(C)NC(C)=C(C(=O)OC(C)C)C1c1cccc(F)c1F)c1ccccc1 (stereo partly drawn) [Example 21, isopropyl (S)-methoxy-2-phenylethyl 4-(2,3-difluorophenyl)-1,4-dihydro-2,6-dimethylpyridine-3,5-dicarboxylate]
0.44 | 32 nM | – | COC(=O)C1=C(C)NC(C)=C(C(=O)OCCN(C)Cc2ccccc2)C1c1cccc([N+](=O)[O-])c1 (stereo not shown) [Nicardipine, nicardipine]
1.9 | 2.4 nM | – | COCCOC(=O)C1=C(C)NC(C)=C(C(=O)OC(C)C)C1c1cccc([N+](=O)[O-])c1 (stereo not shown) [Nimodipine, nimodipine]
